The target in data set [1] is Amyloid-beta precursor protein (Homo sapiens) (UniProt P05067). The data set is described as follows: Inhibition of amyloid beta (1 to 42) (unknown origin) self-aggregation assessed as Z-average value measured after 7 days by dynamic light scattering analysis. As to conditions: time 7.0 day.
Data set [2] has the same target. Nature of the data set: Inhibition of amyloid beta (1 to 42 ) (unknown origin) self-aggregation assessed as appearance of peak at m/z 507.3270 at 1:5 amyloid-beta:compound concentration ratio incubated for 72 hrs by HRMS-ESI analysis.
Data set [3] shares this target. Nature of the data set: Inhibition of amyloid beta (1 to 42 ) (unknown origin) self-aggregation assessed as appearance of peak at m/z 1224.4239 at 1:5 amyloid-beta:compound concentration ratio incubated for 72 hrs by HRMS-ESI analysis.
For data set [4] the target is unchanged. The data set is described as follows: Inhibition of amyloid beta (1 to 42) (unknown origin) self-aggregation assessed as absence of fibrillar aggregates at 1:5 amyloid-beta:compound concentration ratio incubated for 72 hrs by high-resolution transmission electron microscopic analysis.
The target is the same in data set [5]. Nature of the data set: Inhibition of amyloid beta (1 to 42) (unknown origin) self-aggregation measured for 7 days by ThT fluorescence assay. Particulars: time 7.0 day.
Data set [6] has the same target. Nature of the data set: Inhibition of amyloid beta (1 to 40)/amyloid beta (1 to 42) (unknown origin) self-aggregation assessed as random coil content at 1:5 amyloid-beta:compound concentration ratio incubated for 48 hrs by CD spectroscopy (reference value: 0 %). Details: scale not given: the % may be the effect or the level left.
Data set [7] has the same target. Nature of the data set: Inhibition of amyloid beta (1 to 42) (unknown origin) self aggregation at 10 uM by ThT fluorescence assay relative to control.
Data set [8] shares this target. The data set is described as follows: Inhibition of amyloid beta (1 to 42) (unknown origin) self-aggregation assessed as reduction in polydispersity index measured after 7 days by dynamic light scattering analysis. Particulars: time 7.0 day.
The target is the same in data set [9]. Nature of the data set: Inhibition of amyloid beta (1 to 42) (unknown origin) self-aggregation assessed as beta-turn content at 1:5 amyloid-beta:compound concentration ratio incubated for 48 hrs by CD spectroscopy (reference value: 44.8 %). Set-up: scale not given: the % may be the effect or the level left.
Data set [10] shares this target. Nature of the data set: Inhibition of amyloid beta (1 to 42) (unknown origin) self aggregation at 2 to 10 uM by ThT fluorescence assay. Particulars: dose 2-10 µM.
Data set [11] shares this target. Nature of the data set: Inhibition of amyloid beta (1 to 42) (unknown origin) self-aggregation assessed as absence of fibrillar aggregates at 1:5 amyloid-beta:compound concentration ratio incubated for 72 hrs by scanning transmission electron microscopic analysis.
Data set [12] has the same target. The data set is described as follows: Inhibition of amyloid beta (1 to 40)/amyloid beta (1 to 42) (unknown origin) self-aggregation assessed as beta-sheet content at 1:5 amyloid-beta:compound concentration ratio incubated for 48 hrs by CD spectroscopy (reference value: 70.8 %). Set-up: scale not given: the % may be the effect or the level left.
In data set [13] the test system is PC-12. The data set is described as follows: Protection against amyloid beta-induced neurotoxicity in rat PC-12 cells assessed as cell viability at 10 uM by MTT assay (reference value: 63.6 %). Format: functional. Particulars: read-out: Activity. In general terms: Tetrazolium assays rely on reduction of a dye to a coloured formazan, in cell work by metabolically active cells.

In data set [14] the target is Amyloid-beta precursor protein (Homo sapiens) (UniProt P05067). Nature of the data set: Inhibition of amyloid beta (1 to 42) (unknown origin) self-aggregation assessed as alpha-helix content at 1:5 amyloid-beta:compound concentration ratio incubated for 48 hrs by CD spectroscopy (reference value: 0 %). Set-up: scale not given: the % may be the effect or the level left.

For data set [15] the target is unchanged. The data set is described as follows: Inhibition of amyloid beta (1 to 42) (unknown origin) self aggregation at 2 uM by ThT fluorescence assay relative to control.
Data set [16] shares this target. The data set is described as follows: Inhibition of amyloid beta (1 to 42 ) (unknown origin) self-aggregation assessed as appearance of peak at m/z 722.4940 at 1:5 amyloid-beta:compound concentration ratio incubated for 72 hrs by HRMS-ESI analysis.
Data set [17] relates to PC-12. The data set is described as follows: Protection against amyloid beta-induced neurotoxicity in rat PC-12 cells assessed as cell viability at 4 uM by MTT assay (reference value: 63.6 %). The format is functional. As to conditions: read-out: Activity.
Data set [18] concerns the target Amyloid-beta precursor protein (Homo sapiens) (UniProt P05067). Nature of the data set: Inhibition of amyloid beta (1 to 42 ) (unknown origin) self-aggregation assessed as decrease in appearance of peak at m/z 685.4383 at 1:5 amyloid-beta:compound concentration ratio incubated for 72 hrs by HRMS-ESI analysis.
The target is the same in data set [19]. The data set is described as follows: Inhibition of amyloid beta (1 to 40)/amyloid beta (1 to 42) (unknown origin) self-aggregation assessed as beta-turn content at 1:5 amyloid-beta:compound concentration ratio incubated for 48 hrs by CD spectroscopy (reference value: 29.2 %). Details: scale not given: the % may be the effect or the level left.
Data set [20] has the same target. The data set is described as follows: Inhibition of amyloid beta (1 to 40) (unknown origin) self-aggregation assessed as beta-turn content at 1:5 amyloid-beta:compound concentration ratio incubated for 48 hrs by CD spectroscopy (reference value: 0 %). Details: scale not given: the % may be the effect or the level left.
A short description of data set [21]: Inhibition of amyloid beta-induced neurotoxicity in rat PC-12 cells at 4 uM by MTT assay relative to control. The format is functional.
In data set [22] the target is Amyloid-beta precursor protein (Homo sapiens) (UniProt P05067). The data set is described as follows: Inhibition of amyloid beta (1 to 42) (unknown origin) self-aggregation assessed as random coil content at 1:5 amyloid-beta:compound concentration ratio incubated for 48 hrs by CD spectroscopy (reference value: 0 %). Set-up: scale not given: the % may be the effect or the level left.

Data set [23] in a line: Cytotoxicity against rat PC-12 cells assessed as cell viability at 50 uM by MTT assay relative to control. Particulars: read-out: Activity. The format is toxicity, cell-based.
The target of data set [24] is Amyloid-beta precursor protein (Homo sapiens) (UniProt P05067). The data set is described as follows: Inhibition of amyloid beta (1 to 40)/amyloid beta (1 to 42) (unknown origin) self-aggregation assessed as alpha-helix content at 1:5 amyloid-beta:compound concentration ratio incubated for 48 hrs by CD spectroscopy (reference value: 0 %). Details: scale not given: the % may be the effect or the level left.

Data set [25] has the same target. The data set is described as follows: Inhibition of amyloid beta (1 to 42) (unknown origin) self-aggregation assessed as beta-sheet content at 1:5 amyloid-beta:compound concentration ratio incubated for 48 hrs by CD spectroscopy (reference value: 55.2 %). Details: scale not given: the % may be the effect or the level left.
The nature of data set [26]: Inhibition of amyloid beta-induced neurotoxicity in rat PC-12 cells at 10 uM by MTT assay relative to control. The format is functional.
In data set [27] the test system is PC-12. The data set is described as follows: Protection against amyloid beta-induced neurotoxicity in rat PC-12 cells assessed as cell viability at 2 uM by MTT assay (reference value: 63.6 %). Format: functional. As to conditions: read-out: Activity.
Data set [28] is described as follows: Inhibition of amyloid beta-induced neurotoxicity in rat PC-12 cells at 2 uM by MTT assay relative to control. Format: functional.
For data set [29], the target named is Amyloid-beta precursor protein (Homo sapiens) (UniProt P05067). The data set is described as follows: Inhibition of amyloid beta (1 to 40) (unknown origin) self-aggregation assessed as alpha-helix content at 1:5 amyloid-beta:compound concentration ratio incubated for 48 hrs by CD spectroscopy (reference value: 0 %). Details: scale not given: the % may be the effect or the level left.

For data set [30] the target is unchanged. The data set is described as follows: Inhibition of amyloid beta (1 to 42) (unknown origin) self-aggregation assessed as absence of fibrillar aggregates at 1:5 amyloid-beta:compound concentration ratio measured immediately by high-resolution transmission electron microscopic analysis.
The nature of data set [31]: Cytotoxicity against rat PC-12 cells assessed as cell viability at 20 uM by MTT assay relative to control. Format: toxicity, cell-based. As to conditions: read-out: Activity.
Data set [32] addresses Amyloid-beta precursor protein (Homo sapiens) (UniProt P05067). Nature of the data set: Inhibition of amyloid beta (1 to 40) (unknown origin) self-aggregation assessed as beta-sheet content at 1:5 amyloid-beta:compound concentration ratio incubated for 48 hrs by CD spectroscopy (reference value: 59.7 %). Set-up: scale not given: the % may be the effect or the level left.

Data set [33] shares this target. Nature of the data set: Inhibition of amyloid beta (1 to 40) (unknown origin) self-aggregation assessed as random coil content at 1:5 amyloid-beta:compound concentration ratio incubated for 48 hrs by CD spectroscopy (reference value: 40.3 %). Details: scale not given: the % may be the effect or the level left.
Data set [34] has the same target. The data set is described as follows: Inhibition of amyloid beta (1 to 42 ) (unknown origin) self aggregation in liposome-mimicked rat neuronal membrane assessed as fluorescence quenching at 1:5 amyloid-beta:compound concentration ratio incubated for 72 hrs by ANS fluorescence spectra. Format: cell membranes. Particulars: Neuron.
For data set [35] the target is unchanged. The data set is described as follows: Inhibition of amyloid beta (1 to 42) (unknown origin) self-aggregation assessed as absence of fibrillar aggregates at 1:5 amyloid-beta:compound concentration ratio measured immediately by scanning transmission electron microscopic analysis.
The subject of data set [36] is SH-SY5Y. The data set is described as follows: Inhibition of amyloid beta (1 to 42)-induced toxicity in human SH-SY5Y cells assessed as cell survival at 50 uM incubated for 24 hrs by MTT assay relative to control. The format is functional. Particulars: read-out: Survival.

Calls of active or inactive are those of the source. The calls are words filed in the database; no cut-off is given here. Non-standard residues stand in square brackets, D forms with d. Residues, ends and D or L forms follow the SMILES beside them. Aib = CC(C)(N)C(=O)O

A word on the inhibition: it is the drop in the measured response relative to a control, in per cent.

Chain of Amyloid-beta precursor protein (Homo sapiens) (P05067 whole entry): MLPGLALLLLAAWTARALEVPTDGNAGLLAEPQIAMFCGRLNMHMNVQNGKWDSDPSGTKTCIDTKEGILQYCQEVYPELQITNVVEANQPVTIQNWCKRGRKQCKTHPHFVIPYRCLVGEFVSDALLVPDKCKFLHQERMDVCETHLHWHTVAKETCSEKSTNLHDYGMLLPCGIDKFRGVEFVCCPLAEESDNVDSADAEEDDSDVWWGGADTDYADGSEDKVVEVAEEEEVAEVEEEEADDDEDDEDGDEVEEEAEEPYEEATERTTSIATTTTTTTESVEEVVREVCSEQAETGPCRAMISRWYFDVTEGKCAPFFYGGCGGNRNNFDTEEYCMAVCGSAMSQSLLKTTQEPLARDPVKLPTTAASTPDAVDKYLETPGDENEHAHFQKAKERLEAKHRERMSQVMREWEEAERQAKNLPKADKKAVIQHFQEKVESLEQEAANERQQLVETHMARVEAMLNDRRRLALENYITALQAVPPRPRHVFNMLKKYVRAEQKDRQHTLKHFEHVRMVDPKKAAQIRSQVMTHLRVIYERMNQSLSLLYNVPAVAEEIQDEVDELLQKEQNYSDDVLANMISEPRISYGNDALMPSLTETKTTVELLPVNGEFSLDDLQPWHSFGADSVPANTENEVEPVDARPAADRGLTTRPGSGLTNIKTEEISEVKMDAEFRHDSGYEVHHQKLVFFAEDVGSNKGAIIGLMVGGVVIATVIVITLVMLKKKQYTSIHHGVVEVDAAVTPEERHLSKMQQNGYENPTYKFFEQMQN

Consider `CC[C@H](C)[C@H](NC(=O)[C@H](C)N)C(=O)NC(C)(C)C(=O)N[C@H](C(N)=O)C(C)C` (H-AI[Aib]V-NH2), for which the inhibition entry in data set [1], in data set [4], in [5], in data set [8], in [10] and in data set [11] was “Active” throughout. The inhibition result in data set [30] and in data set [35] was “Active” in each case. Also, the inhibition result in [2] is “Active; Peaks Corresponds To [Amyloidbeta (1 To 42) + M]4+”; in data set [3], “Active; Peaks Corresponds To [(Amyloidbeta (21 To 42) + M)4+ ]”; in data set [7] it was 80.8%; in data set [15], 62.7%; in data set [16] it was “Active; Peaks Corresponds To [Amyloidbeta (1 To 42) + M + Na]7+”; in [18], “Active; Peak Corresponds To Aggregates”. In [34], the inhibition entry is reported as “Active; Blue Shift Of 2 To 3 Nm And Isoemissive Point At ~427 Nm Observed”. Also, the Activity is 25.7% in data set [6]; 49% in data set [9]; 1.9% in [12]; 14.4% in [14]; 48.4% in data set [19]; 40.3% in data set [20]. The Activity in [22] was found to be 36.6%; in [24], 23.9%; in data set [25], 0%; in [29] it was 21.6%; in data set [32], 0%; in data set [33], 38.1%. Moreover, the viability at 10 µM in data set [13] was 90.2%. Besides, the viability at 4 µM in data set [17] came out at 82.8%. The compound also came in with an inhibition at 4 µM in [21] of 53%. For the same compound, the viability at 50 µM in data set [23] came to 97.9%. The compound also displayed an inhibition at 10 µM in data set [26] of 73%. Also, the viability at 2 µM in data set [27] was 66.1%. This compound also showed an inhibition at 2 µM in data set [28] of 7%. In [31], the viability at 20 µM stood at 98.5%.

Take H-RIIGL-NH2: the viability at 50 µM in [36] was found to be 84%.

For the origin of these results see ChEMBL document CHEMBL6083190, “Synthesis and mechanistic study of Aβ42 C-terminus domain derived tetrapeptides that inhibit Alzheimer's Aβ-aggregation-induced neurotoxicity” (Bioorg Med Chem Lett, 2024).
